Test results as given in US20040254129A1, “Use of ethoxylated phytosterols and phytostanols” (priority 2001, published 2004).
Where two headings read alike, the source gives them in different places. Marks after values point to notes of the source that are not given here. One block for each molecule: values may come before it.

Experiments:
[1] = Solubilization of griseofulvin by surfactants (UV absorption spectrometry); assay type: physicochemical
Description: For each of the surfactants, four samples with different surfactant concentrations were prepared. The surfactants were dissolved and diluted in pure and filtered water. Griseofulvin was added in excess and the samples were allowed to equilibrate for 4 hours at 45° C. followed by 20 hours at room temperature. The samples were thoroughly shaken during the whole equilibration time. The samples were subsequently centrifuged to remove undissolved griseofulvin. The concentration of dissolved griseofulvin was determined by UV absorption spectrometry. The absorbance was recorded at the wavelength for maximum absorption, λmax=295 nm.
In line with the definition in Example 8, the solubilization capacity becomes [formula]

[2] = test system: erythrocytes extracted from dog blood; test: Determination of the lysis of erythrocytes
Description: (§1) Erythrocytes were extracted from dog blood by a centrifugation—resuspension procedure. The fresh blood was subjected to mild centrifugation at 2000×g for 10 mins. The excessive blood plasma was removed and the so-obtained sediment of erythrocytes was resuspended in normal saline (0.9% NaCl in water). This procedure was repeated twice. The final volume of the erythrocyte suspension was equal to the initial volume of the fresh blood. Surfactant solutions with varying concentration of the surfactant were prepared by dissolving and diluting appropriate amounts of surfactants in 0.9% (w/w) NaCl in water. 100 μl surfactant solution was added to 400 μl erythrocyte suspension. The samples were vigorously agitated for 5 seconds immediately after addition, followed by 20 mins incubation at 37° C. under gentle shaking. The samples were centrifuged for 6 mins at 3000 g and 5° C. The centrifugation separated the samples into sediments of intact erythrocytes and a supernatant. A small fraction of the supernatant was removed and analysed with respect to hemoglobin content. The hemoglobin was allowed to undergo a chemical reaction with H2O2, aminophenazon, and phenol. […] From this concentration, the initial concentration of hemoglobin was calculated. Each determination was carried out for triplicate samples.
(§2) Negative control samples, i.e. samples for the determination of background lysis, were prepared by adding 100 μl normal saline to 400 μl erythrocyte suspension. These samples were treated and analysed in the same way as described above.
(§3) Positive control samples, i.e. samples for the determination of total hemoglobin content, were prepared by diluting the erythrocyte suspension 500 times with distilled water. The dilution caused complete lysis of all erythrocytes, and the concentration of released hemoglobin could be determined as described above.
(§4) The degree of lysis was calculated according to the following expression [formula]
(§5) where % L is the degree of lysis in %, [Hb] the concentration of released hemoglobin in the mixture of erythrocytes and surfactant, [Hb]0 the concentration of released hemoglobin in the negative control (basal hemolysis), and [Hb]tot the total concentration of hemoglobin in the mixtures of erythrocytes and surfactant.
(§6) The degree of lysis was determined as a function of the surfactant concentration in the mixture of erythrocytes and surfactant.
(§7) The activity of each surfactant to cause lysis of erythrocytes is indicated by the position of the lysis curve in the diagram. For a surfactant with low activity, a high concentration is required to obtain a certain degree of lysis. Here, the activity is quantified by considering the concentration at which 10% lysis is obtained. The higher the concentration, the lower the activity.

[3] = test system: erythrocytes extracted from dog blood
Description: as §1, §2, §3, §4, §5, §6, §7

[4] = test system: fresh blood taken from beagle dog (red blood cells); test: Determination of hemolysis in fresh blood; assay type: cell-based; conditions: for Hemolytic activity (concentration range at which 5% hemolysis is obtained): surfactant concentration in blood/surfactant mixture, read from hemolysis curves
Description: 100 μl surfactant solution was added to 400 μl fresh blood taken from beagle dog. The blood and surfactant mixture was gently agitated for 2-3 seconds immediately after addition, followed by 10 mins incubation at 37° C. under gentle shaking. […] During centrifugation the sample separated into a sediment of red blood cells and a supernatant. […] Each determination was carried out for triplicate samples.
After 30 minutes 400 μl of the so-obtained solution was mixed with 100 μl normal saline. From the resulting solution, a small fraction was removed and analysed with respect to hemoglobin content with a Cobas Bio spectrophotometer.
The degree of hemolysis was calculated according to the following expression [formula]
The position of the hemolysis curve along the concentration axis in such a diagram determines the hemolytic activity. The more hemolytic a surfactant is, the lower concentration is required to obtain a certain degree of hemolysis. In order to quantify the hemolytic activity, the concentration was considered at which 5% hemolysis was obtained. The higher the concentration, the lower the activity. The procedure was repeated at least once for all surfactants.

[5] = no surfactant; cited from earlier work
[6] = Solubilization of felodipine by surfactants (14C scintillation detection); assay type: physicochemical; conditions: for solubility of felodipine on addition of the surfactant (in words): 0.9% (w/w) NaCl in water
Description: Both ^14C-labelled and non-labelled felodipine were provided by AstraZeneca AB. In order to obtain a molecularly homogeneous mixture of labelled and non-labelled felodipine, both components were dissolved in chloroform. After a clear solution was obtained, the solvent was evaporated. […] The surfactants were dissolved and diluted in 0.9% (w/w) NaCl in water. The felodipine was added in excess and the samples were allowed to equilibrate for over 48 hours in room temperature under thorough shaking. The samples were filtered using 4 mm Durapore filters (0.45 μm, Millipore) to remove undissolved felodipine. […] From each sample 0.5 ml solution was withdrawn and mixed with 3.5 ml scintillation liquid. The concentration of dissolved felodipine was determined by means of scintillation detection using a Beckman LS6500 scintillation counter.
The solubilization capacity of each surfactant with respect to felodipine was determined by considering the slope of the solubilization curves, α. The slope of each curve, α, describes the additional amount of felodipine that can be dissolved in a solution when a small amount of surfactant is added, which is also the definition of the solubilization capacity. [formula]
The solubilization capacity was calculated by fitting a linear expression to the experimental data and extracting the slope, α.

[7] = surfactant 0.00 mM (no surfactant) in 0.9% (w/w) NaCl

Griseofulvin concentration (solubility of griseofulvin) ([1]; surfactant 2.804 mM in water): 23.4 µM | Griseofulvin concentration (solubility of griseofulvin) ([1]; surfactant 5.608 mM in water): 51 µM | Griseofulvin concentration (solubility of griseofulvin) ([1]; surfactant 14.019 mM in water): 132.9 µM | Griseofulvin concentration (solubility of griseofulvin) ([1]; surfactant 28.038 mM in water): 272 µM | degree of lysis of erythrocytes, % L ([2]; surfactant 0.20 mM in mixture of erythrocytes and surfactant): 0.31% | degree of lysis of erythrocytes, % L ([2]; surfactant 0.40 mM in mixture of erythrocytes and surfactant): 1.96% | degree of lysis of erythrocytes, % L ([2]; surfactant 0.80 mM in mixture of erythrocytes and surfactant): 7.60% | degree of lysis of erythrocytes, % L ([2]; surfactant 1.00 mM in mixture of erythrocytes and surfactant): 9.67% | degree of lysis of erythrocytes, % L ([2]; surfactant 2.01 mM in mixture of erythrocytes and surfactant): 15.11% | degree of lysis of erythrocytes, % L ([2]; surfactant 2.50 mM in mixture of erythrocytes and surfactant): 20.28% | Activity of lysis (concentration at which 10% lysis is obtained) ([2]; surfactant concentration in mixture of erythrocytes and surfactant, read from lysis curves): 1.1 mM
Molecule: OC[C@H]1O[C@H](O[C@H]2[C@H](O)[C@@H](O)[C@H](OCCCCCCC3CCCCC3)O[C@@H]2CO)[C@H](O)[C@@H](O)[C@@H]1O [Cyclohexyl-hexyl maltoside, cyclohexyl-n-hexyl-β-D-maltopyranoside]

Griseofulvin concentration (solubility of griseofulvin) ([1]; surfactant 117.6 mM in water): 323.2 µM | Griseofulvin concentration (solubility of griseofulvin) ([1]; surfactant 235.1 mM in water): 442.5 µM | Griseofulvin concentration (solubility of griseofulvin) ([1]; surfactant 587.8 mM in water): 445.1 µM | Griseofulvin concentration (solubility of griseofulvin) ([1]; surfactant 1175.7 mM in water): 432 µM
Molecule: CCCCCCCCO[C@@H]1O[C@H](CO)[C@@H](O[C@H]2O[C@H](CO)[C@@H](O)[C@H](O)[C@H]2O)[C@H](O)[C@H]1O [Octyl maltoside, n-octyl-β-D-maltopyranoside]

Second part, the molecule before the results:

Molecule: CCCCCCCCCCCCO[C@@H]1O[C@H](CO)[C@@H](O[C@H]2O[C@H](CO)[C@@H](O)[C@H](O)[C@H]2O)[C@H](O)[C@H]1O [Dodecyl maltoside, n-dodecyl-β-D-maltopyranoside]
Activity of lysis (concentration at which 10% lysis is obtained) [3]: 0.8 mM | Griseofulvin concentration (solubility of griseofulvin) ([1]; surfactant 0.811 mM in water): 10.1 µM | Griseofulvin concentration (solubility of griseofulvin) ([1]; surfactant 1.622 mM in water): 22.1 µM | Griseofulvin concentration (solubility of griseofulvin) ([1]; surfactant 4.054 mM in water): 58.2 µM | Griseofulvin concentration (solubility of griseofulvin) ([1]; surfactant 8.108 mM in water): 115.7 µM | degree of hemolysis, % H ([4]; surfactant 0.098 mM in blood/surfactant mixture): 0.456% | degree of hemolysis, % H ([4]; surfactant 0.196 mM in blood/surfactant mixture): 1.047% | degree of hemolysis, % H ([4]; surfactant 0.392 mM in blood/surfactant mixture): 2.987% | degree of hemolysis, % H ([4]; surfactant 0.588 mM in blood/surfactant mixture): 4.772% | degree of hemolysis, % H ([4]; surfactant 0.784 mM in blood/surfactant mixture): 7.157% | degree of hemolysis, % H ([4]; surfactant 0.980 mM in blood/surfactant mixture): 7.563% | degree of hemolysis, % H ([4]; surfactant 1.177 mM in blood/surfactant mixture): 11.208% | Hemolytic activity (concentration range at which 5% hemolysis is obtained) [4]: 0.6 mM

Molecule: COC1=CC(=O)C[C@@H](C)[C@]12Oc1c(Cl)c(OC)cc(OC)c1C2=O [griseofulvin, Griseofulvin]
solubility of griseofulvin in pure water [5]: 23 µM

Molecule: polyoxyethylene(20) stearyl ether [Brij ® 78]
solubility of felodipine on addition of the surfactant (in words) [6]: increased | Felodipine concentration (solubility of felodipine) [6, 7]: <0.07 ^† mM | Felodipine concentration (solubility of felodipine) ([6]; surfactant 10.89 mM in 0.9% (w/w) NaCl): 2.64 mM | Felodipine concentration (solubility of felodipine) ([6]; surfactant 21.79 mM in 0.9% (w/w) NaCl): 5.22 mM | Felodipine concentration (solubility of felodipine) ([6]; surfactant 32.68 mM in 0.9% (w/w) NaCl): 7.76 mM | Felodipine concentration (solubility of felodipine) ([6]; surfactant 43.57 mM in 0.9% (w/w) NaCl): 10.25 mM | degree of hemolysis, % H ([4]; surfactant 3.48 mM in blood/surfactant mixture): 1.09% | degree of hemolysis, % H ([4]; surfactant 3.65 mM in blood/surfactant mixture): 1.97% | degree of hemolysis, % H ([4]; surfactant 3.83 mM in blood/surfactant mixture): 2.47% | degree of hemolysis, % H ([4]; surfactant 4.00 mM in blood/surfactant mixture): 3.72% | degree of hemolysis, % H ([4]; surfactant 4.17 mM in blood/surfactant mixture): 6.14% | degree of hemolysis, % H ([4]; surfactant 4.35 mM in blood/surfactant mixture): 9.21% | Hemolytic activity (concentration range at which 5% hemolysis is obtained) [4]: 4 mM

Molecule: polyoxyethylene(23) lauryl ether [Brij ® 35]
solubility of felodipine on addition of the surfactant (in words) [6]: increased | Felodipine concentration (solubility of felodipine) [6, 7]: <0.07 ^† mM | Felodipine concentration (solubility of felodipine) ([6]; surfactant 10.42 mM in 0.9% (w/w) NaCl): 1.7070 mM | Felodipine concentration (solubility of felodipine) ([6]; surfactant 20.84 mM in 0.9% (w/w) NaCl): 3.4064 mM | Felodipine concentration (solubility of felodipine) ([6]; surfactant 31.26 mM in 0.9% (w/w) NaCl): 5.1085 mM | Felodipine concentration (solubility of felodipine) ([6]; surfactant 41.680 mM in 0.9% (w/w) NaCl): 6.8927 mM | degree of hemolysis, % H ([4]; surfactant 8.40 mM in blood/surfactant mixture): 0.87% | degree of hemolysis, % H ([4]; surfactant 16.80 mM in blood/surfactant mixture): 2.37% | degree of hemolysis, % H ([4]; surfactant 25.20 mM in blood/surfactant mixture): 5.04% | degree of hemolysis, % H ([4]; surfactant 33.60 mM in blood/surfactant mixture): 7.44% | degree of hemolysis, % H ([4]; surfactant 42.00 mM in blood/surfactant mixture): 10.85% | Hemolytic activity (concentration range at which 5% hemolysis is obtained) [4]: 25 mM
